Data: patent US20240207454A1, “NEURO-BEHAVIORAL ASSAY FOR PHYSIOLOGICAL EVALUATION OF WATER-SOLUBLE ANESTHETICS” (Northeastern University, priority 2022, published 2024)
Read-outs that look alike come from different tables or passages of the source.

Legend:
[1] = system: Apteronotus leptorhynchus; test: Neuro-behavioral assay: chirps (EOD modulations); format: in vivo; conditions: 1 μM to 60 μM, exposure times of up to 48 hours; negative control
[2] = system: Apteronotus leptorhynchus; test: Neuro-behavioral assay: effect on EOD frequency; format: in vivo; conditions: 1 μM to 60 μM, exposure times of up to 48 hours; negative control
[3] = system: Apteronotus leptorhynchus; test: Neuro-behavioral assay: locomotor activity and induction of anesthesia; format: in vivo; conditions: 1 μM to 60 μM, exposure times of up to 48 hours; negative control
Mauthner cell = conditions: cited from earlier work

Structure (SMILES) | Effect on EOD modulations [1] | Effect on EOD frequency [2] | Effect on locomotor activity [3] | Effect on generation and propagation of action potentials (Mauthner cell; 10 mg/L and 20 mg/L, exposure for more than 1 hour) | Effect on generation and propagation of action potentials (Mauthner cell; 40 mg/L, after 10-30 min) | Effect on generation and propagation of action potentials (Mauthner cell; 60 mg/L, exposure for at least 10-30 min)
NC12CC3CC(CC(C3)C1)C2 [Amantadine] | no effects | no effects | no effects |  |  | 
CC=Cc1ccc(O)c(OC)c1 [isoeugenol] |  |  |  | No effect | slight decrease in the slope of action potentials | additional aspects of the action potential were affected
